Assay results: patent US11826333B2, “Bactericidal debridement compositions for surgical site infections and chronic wound healing” (DePuy Synthes Products, Inc., priority 2020, dated 2023)
Values after ≈ are worked out from the molar mass of the structure shown.

How the values were obtained:
[1] = system: P. aeruginosa, E. coli, K pneumoniae, Proteus mirabilis, Streptococcus pyogenes, B. subtilis, S. aureus, and the yeast C. albicans; conditions: literature, Rabin et al. 2015; many species of bacteria and across kingdom; cited from earlier work
[2] = system: S. aureus (ATCC 25923) biofilms grown for 48 hrs; assay: CDA dose response on mature biofilms (Example 1); type: cell-based; conditions: CDA at 200 ppm or greater in 5% DMSO; 24 hours exposure; 48 h biofilm
Procedure: (§1) In the following examples, unless otherwise noted, testing was conducted on mature biofilms of S. aureus (ATCC 25923) that were grown for 48 hours. An exemplary preparation of the biofilm is as follows: • Prepare an overnight bacterial inoculum of S. aureus at a concentration of 10^9 CFU/mL in 20 mL in commercial Tryptic Soy Broth (TSB) by incubating at 37° C. shaker at 250 rpm; • Take an OD600 reading of a diluted stock of overnight culture to determine stock concentration with the absorbance method; • Adjust the concentration of bacteria to 10^5 CFU/mL using 0.3% (w/v) TSB forcibly aspirating up and down to break up clumps of colonies with a serological pipette from the stock concentration; • Plate the following dilutions in triplicates on TSA-L plates to determine the initial stock concentration of cells: 10^2 CFU/mL; • Add 7 mL of inoculum into each 15 ml tube containing K-wire using a serological pipette, making sure to again forcibly aspirate up and down prior to addition; • Place the tubes on the revolver at 30° C.; • After 8 hours, unscrew the caps and transfer the caps with sutures to a new tube with 7 mL of 0.3% TSB and incubate in the shaker-incubator for an additional 44 hours to grow the biofilm at 40 RPM growing; • During this time, change the media 2 times per day by unscrewing the cap and transferring to a new tube with 7 mL TSB. […]

planktonic S. aureus = assay: CDA effect on planktonic bacteria (visual MIC test and follow-up plating); type: cell-based
Description: As an additional test, several different CDA concentrations (800 ppm, 400 ppm, 200 ppm, 100 ppm, 50 ppm, 25 ppm, 12.5 ppm, and 6.25 ppm) were placed in vials including planktonic S. aureus. The vials can be seen in FIG. 3A. Two controls are on the right and unlabeled (bacteria/no fatty acid and no fatty acid/no bacteria, respectively). […] This test was qualitative and was based on whether there was observable bacteria in the test vials. In FIG. 3A, it can be seen that only the test vial containing 800 ppm CDA contains clear fluid, while the other tubes are all cloudy indicating active presence of bacteria.
Thus, even at an MIC of 800 ppm, CDA was not shown to be bactericidal but rather bacteriostatic with respect to planktonic bacteria.

[3] = system: S. aureus (ATC 25923) biofilm grown for 48 hours on K-wires; assay: 1 hour CDA/cefazolin exposure of debrided or full biofilm on K-wires (Example 3); type: cell-based; conditions: debrided biofilm; for Avg. Log CFU, K-Wire Testing / Avg. Log CFU, Well Testing: 21° C.; for Reduction (log CFU), K-Wire Testing / Reduction (log CFU), Well Testing: vs debrided biofilm control
Procedure: The goal of this study was to determine whether the combination of CDA and Cefazolin can act quickly on a debrided contaminated wound site with an adjuvant killing effect of CDA and a therapeutic drug concentration. The biofilm was grown at 30° C. and the same 0.3% (w/v) media used in previous studies was used in this study. The biofilm was grown for 48 hours, then underwent a mechanical “debridement” process. This debridement was done to simulate the debridement of an infected wound site. After the physical removal of visual biofilm, the K-wires were exposed to 400 ppm CDA, 10 ppm cefazolin, or a combination of both, for one hour (in contrast to the previous studies where exposure was for 24 hrs). Separately, a test was conducted on an untreated biofilm (i.e., not debrided) using a higher concentration of CDA, approximately 800 ppm. This concentration of CDA was determined to be the MIC value for ATC 25923 planktonic cells as noted above in the previous example.
The contents of the wells and bacteria on the K-wires were diluted and plated to determine CFU/mL. Briefly, the K-wires were secured to tube caps and placed in tubes incubated with an initial inoculum concentration (10^5 CFU/mL) and grown for 24-48 hours. Media was changed roughly every 8 hours. After growth, the biofilms were exposed to a combination of CDA and cefazolin for 60 minutes.
After exposure time was completed, both the well samples and the debrided K-wires were treated, and the remaining bacteria cells were plated and counted. For the media in the wells, samples were centrifuged for 10 minutes at 3000 rpm and the supernatant was removed. The cells were resuspended in 10 mL 1×PBS buffer. This washing step was repeated for a second time and the cells resuspended again in a final volume of 1.5 mL neutralizing buffer, diluted and plated on Tryptic Soy Agar with Lectin (TSA-L) agar plates. For the K-wires, the caps securing the K-wires in the tubes were removed and transferred to tubes with 10 mL 1×PBS and the tubes were inverted. The cap with the K-wires were transferred again to another tube with PBS and the step was repeated. After washing the K-wires 2×, they were transferred to tubes with neutralizing buffer and vortexed followed by ultra-sonication for 10 minutes. The cells were then diluted and plated on TAS-L agar plates.
Prepare an overnight bacterial inoculum of S. aureus at a concentration of 10^9 CFU/mL in 20 mL in commercial TSB by incubating at 37° C. shaker at 250 rpm.
Adjust the concentration of bacteria to 10^5 CFU/mL using 0.3% (w/v) TSB making sure to forcibly aspirate up and down to break up clumps of colonies with a serological pipette from the stock concentration.
Add 7 mL of inoculum into each 15 ml tube containing K-wire using a serological pipette, making sure to again forcibly aspirate up and down prior to addition.
After 8 hours, unscrew the caps and transfer the caps with sutures to a new tube with 7 mL of 0.3% TSB and incubate in the shaker-incubator for an additional 44 hours to grow the biofilm at 40 RPM growing.
During this time, change the media 2× per day by unscrewing the cap and transferring to a new tube with 7 mL TSB. After 48 hours of growth, proceed with debridement of the biofilm and exposure.
Transfer the K-wires in new tubes containing 10 mL of 1×PBS, invert it two times and repeat the same step with one more PBS wash by inverting 2 times for a total of 2 washes.
Transfer caps with debrided biofilm to a new tube containing 10 mL of 0.1% TSB with DMSO only.
Transfer caps with debrided biofilm to a new tube containing 10 mL of 0.1% TSB+400 ppm concentration of CDA+5% DMSO.
Transfer caps with debrided biofilm to a new tube containing 10 mL of 0.1% TSB+10 ppm concentration of cefazolin.
Transfer caps with debrided biofilm to a new tube containing 10 mL of 0.1% TSB+10 ppm concentration of cefazolin+400 ppm CDA+5% DMSO. […]

MRSA = conditions: literature, Jennings et al. 2012; cited from earlier work
[4] = system: mature biofilms of S. aureus (ATCC 25923); assay: CDA dispersant effect on mature biofilms; type: cell-based; conditions: CDA ~0.05 ppm, 310 nM
Procedure: (§2) In the following examples, unless otherwise noted, testing was conducted on mature biofilms of S. aureus (ATCC 25923) that were grown for 48 hours. An exemplary preparation of the biofilm is as follows: • Prepare an overnight bacterial inoculum of S. aureus at a concentration of 10^9 CFU/mL in 20 mL in commercial Tryptic Soy Broth (TSB) by incubating at 37° C. shaker at 250 rpm; • Take an OD600 reading of a diluted stock of overnight culture to determine stock concentration with the absorbance method; • Adjust the concentration of bacteria to 10^5 CFU/mL using 0.3% (w/v) TSB forcibly aspirating up and down to break up clumps of colonies with a serological pipette from the stock concentration; • Plate the following dilutions in triplicates on TSA-L plates to determine the initial stock concentration of cells: 10^2 CFU/mL; • Add 7 mL of inoculum into each 15 ml tube containing K-wire using a serological pipette, making sure to again forcibly aspirate up and down prior to addition; • Place the tubes on the revolver at 30° C.; • After 8 hours, unscrew the caps and transfer the caps with sutures to a new tube with 7 mL of 0.3% TSB and incubate in the shaker-incubator for an additional 44 hours to grow the biofilm at 40 RPM growing; • During this time, change the media 2 times per day by unscrewing the cap and transferring to a new tube with 7 mL TSB.

biofilms = conditions: literature, Davies & Marques 2009; cited from earlier work
[5] = system: mature biofilms of S. aureus (ATCC 25923) grown for 48 hours on K-wires; assay: CDA + antibiotics on K-wires having mature biofilms (Example 2); type: cell-based; conditions: 400 ppm CDA adjuvant in combination with the named antibiotic; 48 h biofilm
Procedure: as §2
New K-wires were roughened with #600 sandpaper (˜10× along the length) followed by rinsing with deionized water. The rinsed K-wires were then completely immersed in a 10% citric acid (w/v) bath at ˜49° C. for 20 minutes to passivate the surface of the stainless steel to prevent subsequent corrosion. After removal from the bath, the K-wires were then rinsed with deionized water. The K-wires were then washed and sterilized by autoclaving.
K-wires were secured to tube caps and placed in tubes incubated with an initial inoculum concentration (10^5 CFU/mL) and grown for 24-48 hours. Media was changed roughly every 8 hours. After growth, the inoculated K-wires were ready for testing.
After exposure time is completed, both the well samples and the debrided K-wires are treated, and remaining bacteria cells are plated and counted. For the media in the wells, samples are centrifuged for 10 minutes at 3000 rpm and the supernatant is removed. The cells are resuspended in 10 mL 1×PBS buffer. This washing step is repeated for a 2nd time and the cells resuspended again in a final volume of 1.5 mL neutralizing buffer, diluted and plated on Tryptic Soy Agar with Lectin (TSA-L) agar plates. For the K-wires, the caps securing the K-wires in the tubes are removed and transferred to tubes with 10 mL 1×PBS and the tubes are inverted. The caps with the K-wires are transferred again to another tube with PBS and the step repeated. After washing the K-wires 2 times, they are transferred to tubes with neutralizing buffer and vortexed followed by ultra-sonication for 10 minutes. The cells are then diluted and plated on TSA-L agar plates.
Following growth, biofilms were washed and treated with the fatty acid and/or antimicrobials to determine dose-response and adjuvant effects. After this time, the wells of the samples were diluted and plated to determine dispersion levels compared to controls. The K-wires were washed, sonicated to remove any residual cells, and the samples were plated to determine CFU/mL.

Staphylococcus aureus = conditions: literature, Stenz et al.; by inhibiting bacterial adhesion; cited from earlier work
Xanthomonas campestris = conditions: literature, Dow et al. 2003; cited from earlier work
[6] = system: mature biofilms of S. aureus (ATCC 25923); assay: Systemic gentamicin testing on mature biofilms; type: cell-based; conditions: approximately 10 ppm (10 mcg/ml) gentamicin; data not shown
Procedure: as §1

For `CCCCCCC/C=C\C(=O)O` [CDA, cis-2-decenoic acid], the “effect on established biofilms” value [1] is listed as “disperse established biofilms”, the “log reduction in CFU” value [2] is listed as “greater than 4 log” and the “growth in the tube” value (planktonic S. aureus; 400 ppm CDA, planktonic S. aureus) is listed as “visible growth”. The bacteriostatic or bactericidal (planktonic S. aureus; 800 ppm CDA, 10 μL plated on TSA-L agar after 24 hours incubation) was “bacteriostatic, not bactericidal”, the MIC (planktonic S. aureus; Staphylococcus aureus, planktonic cells, qualitative, clear vs cloudy vials, read-out: minimum inhibitory concentration (MIC)) was 800 µg/mL (≈ 4.7 mM) and the “Avg. Log CFU, K-Wire Testing” value ([3]; 400 ppm CDA + 5% DMSO) was 7.8 Log CFU. For the same compound, the “Avg. Log CFU, Well Testing” value ([3]; 400 ppm CDA + 5% DMSO) was 5.6 Log CFU, the “Reduction (log CFU), K-Wire Testing” value ([3]; 400 ppm CDA + 5% DMSO) was 1.6 and the “Reduction (log CFU), Well Testing” value ([3]; 400 ppm CDA + 5% DMSO) was 0.6. The “concentration that inhibited biofilm formation” value (MRSA) was 125 ppm, the “concentration that inhibited the growth of MRSA” value (MRSA) was at least 500 ppm and the dispersion of biofilm [4] was “no observed dispersion”. The “lowest concentration able to disperse biofilms” value (biofilms) was “about 2.5 nM”.
In the case of `Cc1nnc(SCC2=C(C(=O)O)N3C(=O)[C@@H](NC(=O)Cn4cnnn4)[C@H]3SC2)s1` [Cef, cefazolin], the “log reduction of bacteria in the wells” value [5] is reported as 7.8 log, the “log reduction of bacteria on the medical device (K-wires)” value (“log reduction of bacteria … (K-wires)” below) [5] is reported as 5.9 log and the “Avg. Log CFU, K-Wire Testing” value ([3]; 10 ppm cefazolin) is reported as 8.5 Log CFU. For the same compound, the “Avg. Log CFU, Well Testing” value ([3]; 10 ppm cefazolin) was 5.4 Log CFU, the “Reduction (log CFU), K-Wire Testing” value ([3]; 10 ppm cefazolin) was 0.9 and the “Reduction (log CFU), Well Testing” value ([3]; 10 ppm cefazolin) was 0.8.
In the case of `CCCCCCCC/C=C\CCCCCCCC(=O)O` [Oleic acid, cis-9-octadecanoic acid], the “effect on biofilm formation” value (Staphylococcus aureus) is given as “repress biofilm formation”.
For `CC(C)CCCCCCC/C=C\C(=O)O` [cis-11-methyl-2-dodecenoic acid], the “effect on cell flocs” value (Xanthomonas campestris) is listed as “disaggregate cell flocs”.
For `CN[C@H](CC(C)C)C(=O)N[C@H]1C(=O)N[C@@H](CC(N)=O)C(=O)N[C@H]2C(=O)N[C@H]3C(=O)N[C@H](C(=O)N[C@H](C(=O)O)c4cc(O)cc(O)c4-c4cc3ccc4O)[C@H](O)c3ccc(c(Cl)c3)Oc3cc2cc(c3O[C@@H]2O[C@H](CO)[C@@H](O)[C@H](O)[C@H]2O[C@H]2C[C@](C)(N)[C@H](O)[C@H](C)O2)Oc2ccc(cc2Cl)[C@H]1O` [vancomycin], the “log reduction of bacteria in the wells” value [5] was 5.3 log and the “log reduction of bacteria … (K-wires)” value [5] was 4.7 log.
For gentamicin, the “response of mature biofilms to gentamicin doses” value [6] was “resistant”, the “log reduction of bacteria in the wells” value [5] was 6.3 log and the “log reduction of bacteria … (K-wires)” value [5] was 4.9 log.
